Test results reported in patent US20110027325A1, “ORALLY-ADMINISTERED AGENT” (Lintec Corporation, priority 2008, published 2011).

Test: Viscosity of aqueous solution, E-type viscometer
Assay type: physicochemical
Conditions: 37° C.
Experimental: Tables 1 and 2 shown the constituent materials of the respective layers of the orally-administered agents obtained in the respective Examples and the respective Comparative Examples and the contents thereof. […] Furthermore, the viscosity of the water absorption promoter in the Table 1 and the viscosity of the antiadhesive agent in the Table 2 denote a viscosity at 37° C. of an aqueous solution of 5 mass % of the water absorption promoter and the antiadhesive agent, respectively. Each viscosity was measured with an E-type viscometer (a product of Tokimec, Inc.).

## OC[C@@H](O)[C@@H](O)[C@H](O)[C@H](O)CO [Man, mannitol]
Aqueous solution of 5 mass % of the antiadhesive agent
  Viscosity of antiadhesive agent: 0.87 mPa · s
Aqueous solution of 5 mass % of the water absorption promoter
  Viscosity of water absorption promoter: 0.87 mPa · s
